Consider 18 compounds from ChEMBL document CHEMBL2016563, “Synthesis of new bergenin derivatives as potent inhibitors of inflammatory mediators NO and TNF-α” (Bioorg Med Chem Lett, 2012).

Molecules are shown by their SMILES.

Data set [1] has as its system J774.2. Briefly: Induction of LPS-induced NO production in mouse J774.2 cells at 60 uM after 48 hrs by spectrophotometry. The format is functional.
The subject of data set [2] is THP-1. Kind of data set: Induction of LPS-B-induced TNF-alpha production in human THP1 cells at 60 uM after 4 hrs. Type of data set: functional.
Data set [3] can be described thus: Antiinflammatory activity in human neutrophils assessed as inhibition of opsonized zymosan A-mediated superoxide anions production by WST-1 based respiratory burst assay. The format is functional, cell-based, Neutrophil. On the technique in general: Formazan colour is commonly taken as a measure of viable cells.
Data set [4] has as its system NIH3T3. Briefly: Cytotoxicity against mouse 3T3 cells at 100 uM after 72 hrs by MTT assay. The format is cell-based. Particulars: nih3t3, 72 h; call rule not given here.
Data set [5] relates to J774.2. Kind of data set: Antiinflammatory activity in mouse J774.2 cells assessed as inhibition of LPS-induced NO production at 60 uM after 48 hrs by spectrophotometry. The format is functional. The following applies: J774.2, 48 h.
Data set [6] concerns THP-1. Kind of data set: Antiinflammatory activity in human THP1 cells assessed as inhibition of LPS-B-induced TNF-alpha production at 60 uM after 4 hrs. Particulars: THP-1, 4 h. The format is functional.
The mark [7] stands for this setting: Homo sapiens, Neutrophil, read-out: IC50.

In general, IC50 refers to the concentration needed to halve the response being measured. `COc1c(OC(C)C)cc2c(c1OC(C)C)[C@@H]1O[C@H](CO)[C@@H](O)[C@H](O)[C@H]1OC2=O`: the values for the Activity in data set [1], in data set [2] and in data set [4] were 5.5%, 8.44% and “Non-toxic”, respectively. The IC50 in data set [3] (setting [7]) is 303 µM.

The inhibition is the relative decrease from the control value, in per cent. `C=CCCOc1cc2c(c(OCCC=C)c1OC)[C@@H]1O[C@H](CO)[C@@H](O)[C@H](O)[C@H]1OC2=O`: the Activity in data set [2] is reported as 13.27%; in data set [4] it was “Non-toxic”. Besides, the inhibition at 60 µM in data set [5] came out at 3.6%. Also, in data set [3] (setting [7]), the IC50 came to 288 µM.

For the compound `CCCCCOc1cc2c(c(OCCCCC)c1OC)[C@@H]1O[C@H](CO)[C@@H](O)[C@H](O)[C@H]1OC2=O`, the inhibition at 60 µM in data set [5] turned out to be 3.4%; in data set [6] it was 20.9%. Further, the half-maximal inhibitory concentration (IC50) in data set [3] (setting [7]) stood at 296 µM. Also, the Activity entry in data set [4] is on record as “Non-toxic”.

Regarding `CCOc1cc2c(c(OCC)c1OC)[C@@H]1O[C@H](CO)[C@@H](O)[C@H](O)[C@H]1OC2=O`, the values for the inhibition at 60 µM in data set [5] and in data set [6] were 54.5% and 98.6%, respectively. For the same compound, in data set [3] (setting [7]), the IC50 is 322 µM. For the same compound, the Activity result in data set [4] is “Non-toxic”.

On to `COc1cc2c(c(OC)c1OC)[C@@H]1O[C@H](CO)[C@@H](O)[C@H](O)[C@H]1OC2=O`, for which the inhibition at 60 µM in data set [5] was determined as 47.6%; in data set [6] it was 0.44%. In data set [3] (neutrophil), the IC50 result is “Not Active”. The Activity entry in data set [4] is given as “Non-toxic”.

In the case of `C#CCOc1cc2c(c(OCC#C)c1OC)[C@@H]1O[C@H](CO)[C@@H](O)[C@H](O)[C@H]1OC2=O`, the Activity was 27.56% in data set [2] and “Non-toxic” in data set [4]. Also, the inhibition at 60 µM in data set [5] stood at 19.4%. Also, in data set [3] (setting [7]), the IC50 stood at 382 µM.

With `CCCCCCCOc1cc2c(c(OCCCCCCC)c1OC)[C@@H]1O[C@H](CO)[C@@H](O)[C@H](O)[C@H]1OC2=O`, the inhibition at 60 µM in data set [5] came to 18%; in data set [6], 28.7%. Further, the IC50 in data set [3] (setting [7]) was determined as 213 µM. Moreover, in data set [4], the Activity entry was “Non-toxic”.

With `C=CCCCCOc1cc2c(c(OCCCCC=C)c1OC)[C@@H]1O[C@H](CO)[C@@H](O)[C@H](O)[C@H]1OC2=O`, the inhibition at 60 µM in data set [5] stood at 9.4%; in data set [6], 17.7%. In data set [3] (setting [7]), the IC50 turned out to be 270 µM. Besides, in data set [4], the Activity entry is recorded as “Non-toxic”.

With `C=CCOc1cc2c(c(OCC=C)c1OC)[C@@H]1O[C@H](CO)[C@@H](O)[C@H](O)[C@H]1OC2=O`, the Activity in data set [2] is reported as 18.41%; in data set [4] it was “Non-toxic”. In addition, the inhibition at 60 µM in data set [5] was 5.5%. Besides, the IC50 in data set [3] (setting [7]) turned out to be 333 µM.

With `COc1c(OCC#N)cc2c(c1OCC#N)[C@@H]1O[C@H](CO)[C@@H](O)[C@H](O)[C@H]1OC2=O`, the results for the Activity in data set [2] and in data set [4] were 26.21% and “Non-toxic”, respectively. In data set [5], the inhibition at 60 µM is 13.3%. In data set [3] (setting [7]), the IC50 is 416 µM.

For the compound `CCCCOc1cc2c(c(OCCCC)c1OC)[C@@H]1O[C@H](CO)[C@@H](O)[C@H](O)[C@H]1OC2=O`, the inhibition at 60 µM was 31.2% in data set [5] and 26.3% in data set [6]. Further, the IC50 in data set [3] (setting [7]) is 403 µM. The Activity result in data set [4] is recorded as “Non-toxic”.

With `COc1c(OCC(=O)OC(C)(C)C)cc2c(c1OCC(=O)OC(C)(C)C)[C@@H]1O[C@H](CO)[C@@H](O)[C@H](O)[C@H]1OC2=O`, the inhibition at 60 µM is 16.3% in data set [5] and 9.6% in data set [6]. Besides, in data set [3] (setting [7]), the IC50 was determined as 482 µM. Besides, in data set [4], the Activity result is “Non-toxic”.

With `CCCCCCCCOc1cc2c(c(OCCCCCCCC)c1OC)[C@@H]1O[C@H](CO)[C@@H](O)[C@H](O)[C@H]1OC2=O`, the Activity in data set [2] is given as 3.4%; in data set [4] it was “Non-toxic”. For the same compound, in data set [5], the inhibition at 60 µM was determined as 18%. Also, in data set [3] (setting [7]), the IC50 was determined as 222 µM.

Turning to `CCCOc1cc2c(c(OCCC)c1OC)[C@@H]1O[C@H](CO)[C@@H](O)[C@H](O)[C@H]1OC2=O`, the Activity in data set [2] is 5.57%; in data set [4], “Non-toxic”. Also, the inhibition at 60 µM in data set [5] is 8.9%. Further, the IC50 entry in data set [3] (neutrophil) was “Not Active”.

On to `CCOC(=O)COc1cc2c(c(OCC(=O)OCC)c1OC)[C@@H]1O[C@H](CO)[C@@H](O)[C@H](O)[C@H]1OC2=O`, for which the values for the inhibition at 60 µM in data set [5] and in data set [6] were 86.8% and 96.2%, respectively. Also, in data set [3] (setting [7]), the IC50 was 253 µM. Further, the Activity result in data set [4] is “Non-toxic”.

`COc1c(O)cc2c(c1O)[C@@H]1O[C@H](CO)[C@@H](O)[C@H](O)[C@H]1OC2=O` [BERGENIN]: the Activity in data set [2] was 7.91%; in data set [4], “Non-toxic”. For the same compound, the inhibition at 60 µM in data set [5] is 4.3%. The IC50 in data set [3] (setting [7]) came to 303 µM.

In the case of `COc1ccc2c(c1)c(CC(=O)O)c(C)n2C(=O)c1ccc(Cl)cc1` [INDOMETHACIN], the IC50 in data set [3] (setting [7]) was found to be 271 µM.

Turning to `CNC(=N)NCCC[C@H](N)C(=O)O` [TILARGININE ACETATE], the inhibition at 60 µM in data set [5] was found to be 40%.
